# Patent US7030087B2, “Synthetic approach to designed chemical structures” (priority 1996, dated 2006)
# Legend:
# [1] = system: EC (endothelial cells); assay: EC proliferation, 3[H]thymidine incorporation assay; type: cell-based
# Experimental: (§1) Since the in vivo situation of tumor associated EC involves the low expression or even absence of ICAM-1, the next set of experiments aimed to study the ability to reinduce ICAM-I expression after bFBF preincubation. […] In these experiments, HUVEC were pretreated for 3 days with bFGF, subsequently PF4 was added for 3 days and, where indicated in the last 16 hours of culture 4 ng/ml TNFα was added. Human umbilical vein derived endothelial cells (HUVEC) were harvested from normal human umbilical cords by perfusion with 0.125% trypsin/EDTA as described previously. Cells were cultured in fibronectin (FN) coated tissue culture flasks in culture medium (RPMI-1640 with 20% human serum (HS), supplemented with 2 mM glutamine and 100 U/ml penicillin and 0.1 mg/ml streptomycin). Immunofluorescence using indirect PE-conjugated reagents required three separate incubations. 1×10^5 EC were fixed for 1 hour in 1% paraformaldehyde, resuspended in 20 μl appropriately diluted Mab and incubated for 1 hour on ice. Subsequently, cells were washed two times in PBS/BSA (0.1%) and incubated for another 30 minutes with biotinylated rabbit-anti-mouse Ig (Dako, Glostrup, Denmark). After another 2 washings, cells were incubated with streptavidin-phycoerythrin conjugate (Dako). Stained cells were analyzed on a FACScan flowcytometer. Data analysis was performed using PCLysys software (Becton Dickinson, Mountain View, Calif.). Statistical significance of observed differences was determined using the Student's t-test.
# EC proliferation was measured using a ^3[H]thymidine incorporation assay. EC were seeded in flatbottomed 96-well tissue culture plates (5000 cells/well) and grown for 3 days, in culture medium. In some cultures the proliferation of EC was enhanced by incubation with 10 ng/ml bFGF. During the list 6 hours of the assay, the culture was pulsed with 0.5 μCi [methyl-^3H]thymidine/well. Results are expressed as the arithmetic mean counts per minute (cpm) of triplicate cultures.
# [2] = system: ICAM-1; assay: ICAM-1 expression on endothelial cells (immunofluorescence, FACScan); type: cell-based, human
# Experimental: In a first series of experiments, PF4 and βpep peptides were tested for their ability to prevent bFGF (fibroblast growth factor) mediated downregulation of ICAM-1. […] Simultaneously 100 μg/ml of each PF4, βpep-14, βpep-16, or medium was added. Mean ICAM-1 fluorescence intensity values were determined.
# as §1
# The energy of EC to stimulation with inflammatory cytokines was the subject of a next series of experiments. For these experiments, HUVEC (human vascular endothelial cells) were pretreated with 10 ng/ml bFGF for 3 days. Subsequently, cells are subcultured for 3 days with […] in the presence of PF4. For the last 16 hours of the culture 4 ng/ml TNFα was added to induce upregulation of ICAM-1. […] The regulation of ICAM-1 at the protein level was confirmed in Northern blot analysis for detection of ICAM-1 message. In these experiments, HUVEC were cultured for 3 days with bFGF and treated for the last 4 and 24 hours with PF4 (100 μg/ml). TNFα was added 2 hours before isolation of RNA. RNA from a subconfluent EC cultures (75 cm^2 Petri-dishes) incubated with bFGF for different time-points was isolated using an RNA-zol kit (Campro Scientific, Houston, Tex.). Total RNA (10 μg) for each sample was separated in a 0.8% formaldehyde-denaturing gel, transferred to nitrocellulose (Hybond N+, Amersham International, Amersham, UK) and hybridized to a ^32P-labelled 1.9 Kb c-DNA probe, containing the functional sequence of the human ICAM-1 gene (a gift from Dr. B. Seed). Membranes were washed at a high stringency in 0.2×SSC, 0.1% SDS at 50° C. for 1 hour. Filters were exposed to X-ray films (Kodak X-omat, Eastman Kodak Company, Rochester, N.Y.) using an intensifying screen at −80° C. for not less than 12 hr. Autoradiograms were subjected to scanning using a laser densitometer (Model GS670, Bio-Rad, Hercules, Calif.) and data were analysed with the Molecular Analyst PC™ software. The intensity of the major ICAM-1 mRNA transcript was normalized with respect to actin mRNA expression used as a control.
# [3] = system: P. aeruginosa; assay: Bactericidal activity assay; type: cell-based, Pseudomonas aeruginosa type 1; conditions: for Bactericidal Activity, % killing: 1.2 × 10^−7 M Peptide, 5 × 105 P. aeruginosa; for Bactericidal Activity, % killing at the effective dose: at the Ed for the same peptide; for Bactericidal Activity, Ed, Effective M dose: dose at which the % in brackets was found
# Text: Bacteria: P. aeruginosa type 1 is a clinical isolate maintained in the laboratory. The isolate remains a smooth strain and was serotyped by the scheme of Homma. The Pseudomonas strain was maintained by monthly transfer on blood agar plates.
# The peptides can be assayed for bactericidal activity against a variety of organisms such as Pseudomonas aeruginosa type 1, P. cepacia ATCC 25608, E. coli B, and Staphylococcus aureus 502A by standard methods.
# Pseudomonas aeruginosa type 1 is a clinical isolate. The isolate remains a smooth strain and was serotyped by the scheme of Homma (Jpn. J. Exp. Med. 46:329, 1976). A rough strain, E. coli B and S. aureus 502A were obtained from Paul Quie, University of Minnesota (Minneapolis, Minn.). The characteristics of the S. aureus strain have been described by Shinefield et al. (Amer. J. Dis. Chil. 105:646, 1963). Pseudomonas cepacia ATCC 25608 can be purchased from the ATCC. S. aureus and E. coli were maintained on nutrient agar plates and the Pseudomonas strains were maintained on blood agar plates.
# Pyrogen-free solutions were used throughout the assay and all methods that follow. Log phase bacteria were prepared from a culture in brain heart infusion broth (Hovde et al. Infect. Immun. 54:142–148, 1986) and bacteria were washed and resuspended in saline with adjustment to an optical density at 650 nm to provide a yield of about 3×10^8 CFU/ml. Bacteria were diluted 1:10 in 0.08M citrate phosphate buffer, pH 5.6 or pH 7.0, for use in the assay. S. aureus rapidly lost viability in the pH 5.6 buffer and was studied only at pH 7.0. Bactericidal activity was determined by dose response over peptide concentrations ranging from about […] to about 4.1×10^−9M. Bactericidal activity was determined by dose response, preferably determining LD50 by linear regression.
# [4] = system: endothelial cells (FBHEC, HUVEC); assay: Endothelial cell proliferation assay of βpeptides 1–24 (FIG. 7); type: cell-based
# Experimental: FIG. […] FIG. 7A provides ^3H-Thymidine incorporation data for FBHEC cells and FIG. 7B provides ^3H-Thymidine incorporation data for HUVEC cells.
# βpeptides 1–24 were tested in an endothelial cell proliferation assay using ^3H-thymidine incorporation. […]
# [5] = system: endotoxin from E. coli 055:B5; assay: Limulus amoebocyte lysate assay (E-TOXATE), endotoxin neutralization; type: biochemical; conditions: for Endotoxin Neutralization, % neutralization: 5.0 × 10^−6 M Peptide; for Endotoxin Neutralization, % neutralization / Endotoxin Neutralization, % at the effective dose / Endotoxin Neutralization, Ed, Effective M dose: Table 4; for Endotoxin Neutralization, % at the effective dose: at the Ed
# Experimental: The peptides were tested for their ability to neutralize endotoxin. Quantitative endotoxin activities for these peptides were measured by Limulus amoebocyte lysate assay.
# Limulus amoebocyte lysate assay: The ability of synthetic peptides to neutralize endotoxin was detected with the E-TOXATE kit manufactured by Sigma Chemicals (St. Louis, Mo.). […] Peptide or B/PI was incubated with LPS at room temperature for 5 min in 100 ul of a 1:2 dilution of pyrogen-free saline (pH 6.4). The reaction was started by addition of 100 ul of amoebocyte lysate and the final volume was 200 ul. Assuming a 10,000 molecular weight for LPS, the approximate molar ration of B/PI:LPS at neutralization was 3000 to 1.
# The peptides were tested according to the method provided above. […] BG38L was used as a positive control in these experiments.
# [6] = 0.02 U (0.2 pg) endotoxin from E. coli 055:B5
# [7] = dose at which the % in brackets was found
Molecule,"Bactericidal Activity, % killing [3]","Bactericidal Activity, % killing at the effective dose [3]","Bactericidal Activity, Ed, Effective M dose [3]",endotoxin neutralizing activity (in words) [5],"Endotoxin Neutralization, % neutralization [5, 6]","Endotoxin Neutralization, % at the effective dose [5]","Endotoxin Neutralization, Ed, Effective M dose [5, 7]",also measured
"O=C1CCC(N2C(=O)c3ccccc3C2=O)C(=O)N1 (stereo not shown) [thalidomide, reference compound]",,,,,,,,EC growth in vitro (in words) [1]: do not affect EC growth in vitro; effect of other inhibitors of angiogenesis on ICAM-1 expression (in words) [2]: did not affect ICAM-1 expression
ANIKLSVEMKLFKRHLKWKIIVKLNDGRELSLD [βpep-8],0%,"(28.1), n = 3%",960 nM,best endotoxin neutralizing activity,100%,77.9%,1.2 µM,"control of endothelial cell proliferation (in words) [4]: little cell proliferation activity; Endotoxin Neutralizing Activity, % neutralization ([5]; 5.0 × 10^−5 M peptide, 0.02 U (0.2 pg) endotoxin from E. coli 055:B5, Table 3): 100%; Endotoxin neutralization, ED, Effective M dose ([5]; Table 3, dose at which the % in brackets was found): 1.2 µM"
SIQDLKVSLNLFRKQAKWKIIVKLNDGRELSLD [βpep-23],0%,45.8%,480 nM,best endotoxin neutralizing activity,100%,65.7%,1.2 µM,effectiveness at decreasing endothelial cell growth ([4]; 0.26 micromolar): about 30%
SIQDLNVSMKLFRKQAKWKIIAKLNDGRELSLD [βpep-16],0%,24.3%,960 nM,,100%,16.5%,1.2 µM,"EC proliferation in vitro (in words) [1]: angiostatic; (3H)-thymidine incorporation ([1]; expt 2 (first, r11), 1 μg/ml, 10 ng/ml bFGF, medium 29079 ± 2506): 35447 ± 2621 cpm; (3H)-thymidine incorporation ([1]; expt 2 (first, r11), 1 μg/ml, no bFGF, medium 14296 ± 2490): 15039 ± 2020 cpm; (3H)-thymidine incorporation ([1]; expt 2 (first, r11), 10 μg/ml, 10 ng/ml bFGF, medium 29079 ± 2506): 33663 ± 2572 cpm; (3H)-thymidine incorporation ([1]; expt 2 (first, r11), 10 μg/ml, no bFGF, medium 14296 ± 2490): 11881 ± 2545 cpm; (3H)-thymidine incorporation ([1]; expt 2 (first, r11), 100 μg/ml, 10 ng/ml bFGF, medium 29079 ± 2506): 7852 ± 875 cpm; (3H)-thymidine incorporation ([1]; expt 2 (first, r11), 100 μg/ml, no bFGF, medium 14296 ± 2490): 4929 ± 749 cpm; (3H)-thymidine incorporation ([1]; expt 2 (second, r19), 1 μg/ml, 10 ng/ml bFGF, medium 52808 ± 4092): 47727 ± 447 cpm; (3H)-thymidine incorporation ([1]; expt 2 (second, r19), 1 μg/ml, no bFGF, medium 6780 ± 713): 7450 ± 737 cpm; (3H)-thymidine incorporation ([1]; expt 2 (second, r19), 10 μg/ml, 10 ng/ml bFGF, medium 52808 ± 4092): 44919 ± 2081 cpm; (3H)-thymidine incorporation ([1]; expt 2 (second, r19), 10 μg/ml, no bFGF, medium 6780 ± 713): 6148 ± 1370 cpm; (3H)-thymidine incorporation ([1]; expt 2 (second, r19), 100 μg/ml, 10 ng/ml bFGF, medium 52808 ± 4092): 27071 ± 3277 cpm; (3H)-thymidine incorporation ([1]; expt 2 (second, r19), 100 μg/ml, no bFGF, medium 6780 ± 713): 2669 ± 370 cpm; bFGF mediated downregulation of ICAM-1 (in words) ([2]; 10 ng/ml bFGF for 3 days, 100 μg/ml added simultaneously): complete block of bFGF mediated downregulation"
